Where no end group is shown, it is not given here.

Consider 1 sequence from patent EP0754193B1, “HEPATITIS C VIRUS CORE PEPTIDE FOR STIMULATION OF CYTOTOXIC T LYMPHOCYTES AND DIAGNOSIS OF HCV EXPOSURE” (priority 1994, dated 1995).

The subject of this series is 18Neo (H-2^d; class I MHC^+, class II MHC^- neomycin-resistance gene-transfected 3T3 fibroblast). Conditions: in the absence of CTL.

For GFADLMGYIPLVGAPL [Peptide C7], the “direct toxicity to the cells” value is reported as “not directly toxic”.
